Experimental findings from patent US9179678B2, “Substituted [1,2,4]triazoles and substituted tetrazoles as herbicides” (SYNGENTA LIMITED, priority 2012, dated 2015) are described below.

Assay type in all cases: in vivo
The test system of assay [1] is Setaria faberi (SETFA). Nature of the assay: Post-emergence glasshouse herbicide test. To be noted: POST Application, 1000 g/h, after 13 days. As to the method: Seeds of a variety of test species are sown in standard soil in pots (Alopecurus myosuroides (ALOMY), Setaria faberi (SETFA), Echinochloa crus-galli (ECHCG), Solanum nigrum (SOLNI), Amaranthus retoflexus (AMARE), Ipomoea hederacea (IPOHE)). After cultivation for one day (pre-emergence) or after 8 days cultivation (post-emergence) under controlled conditions in a glasshouse (at 24/16° C., day/night; 14 hours light; 65% humidity), the plants are sprayed with an aqueous spray solution derived from the formulation of the technical active ingredient in acetone/water (50:50) solution containing 0.5% Tween 20 (polyoxyethelyene sorbitan monolaurate, CAS RN 9005-64-5). […] The test plants are then grown in a glasshouse under controlled conditions in a glasshouse (at 24/16° C., day/night; 14 hours light; 65% humidity) and watered twice daily. After 13 days for pre and post-emergence, the test is evaluated for the percentage damage caused to the plant. The biological activities are shown in the following table on a five point scale (5=80-100%; 4=60-79%; 3=40-59%; 2=20-39%; 1=0-19%).

The subject of assay [2] is Echinochloa crus-galli (ECHCG). Put plainly: Post-emergence glasshouse herbicide test. To be noted: POST Application, 1000 g/h, after 13 days. As to the method: (§1) Seeds of a variety of test species are sown in standard soil in pots (Alopecurus myosuroides (ALOMY), Setaria faberi (SETFA), Echinochloa crus-galli (ECHCG), Solanum nigrum (SOLNI), Amaranthus retoflexus (AMARE), Ipomoea hederacea (IPOHE)). After cultivation for one day (pre-emergence) or after 8 days cultivation (post-emergence) under controlled conditions in a glasshouse (at 24/16° C., day/night; 14 hours light; 65% humidity), the plants are sprayed with an aqueous spray solution derived from the formulation of the technical active ingredient in acetone/water (50:50) solution containing 0.5% Tween 20 (polyoxyethelyene sorbitan monolaurate, CAS RN 9005-64-5). Compounds ae applied at 1000 g/h. The test plants are then grown in a glasshouse under controlled conditions in a glasshouse (at 24/16° C., day/night; 14 hours light; 65% humidity) and watered twice daily. After 13 days for pre and post-emergence, the test is evaluated for the percentage damage caused to the plant. The biological activities are shown in the following table on a five point scale (5=80-100%; 4=60-79%; 3=40-59%; 2=20-39%; 1=0-19%).

Assay [3] deals with Alopecurus myosuroides (ALOMY). Nature of the assay: Post-emergence glasshouse herbicide test. To be noted: POST Application, 1000 g/h, after 13 days. As to the method: as §1
Assay [4] deals with Ipomoea hederacea (IPOHE). Put plainly: Post-emergence glasshouse herbicide test. To be noted: POST Application, 1000 g/h, after 13 days. As to the method: as §1
Assay [5] deals with Amaranthus retoflexus (AMARE). Put plainly: Post-emergence glasshouse herbicide test. To be noted: POST Application, 1000 g/h, after 13 days. As to the method:
as §1

The test system of assay [6] is Solanum nigrum (SOLNI). Nature of the assay: Post-emergence glasshouse herbicide test. To be noted: POST Application, 1000 g/h, after 13 days. As to the method: as §1
Assay [7] concerns Echinochloa crus-galli (ECHCG). Nature of the assay: Pre-emergence glasshouse herbicide test. To be noted: PRE Application, 1000 g/h, after 13 days. As to the method:
as §1

Assay [8] concerns Setaria faberi (SETFA). Put plainly: Pre-emergence glasshouse herbicide test. To be noted: PRE Application, 1000 g/h, after 13 days. As to the method:
as §1

For assay [9], the system named is Alopecurus myosuroides (ALOMY). Put plainly: Pre-emergence glasshouse herbicide test. To be noted: PRE Application, 1000 g/h, after 13 days. As to the method: as §1
Assay [10] has as its system Ipomoea hederacea (IPOHE). Put plainly: Pre-emergence glasshouse herbicide test. To be noted: PRE Application, 1000 g/h, after 13 days. As to the method: as §1
Assay [11] deals with Amaranthus retoflexus (AMARE). Put plainly: Pre-emergence glasshouse herbicide test. To be noted: PRE Application, 1000 g/h, after 13 days. As to the method: as §1
Assay [12] concerns Solanum nigrum (SOLNI). Nature of the assay: Pre-emergence glasshouse herbicide test. To be noted: PRE Application, 1000 g/h, after 13 days. As to the method:
as §1

Each structure is given as a SMILES string.

Regarding `Cn1nnnc1NC(=O)c1nc2ccccc2n(-c2ccc(I)cc2)c1=O` [Compound 5.042], the “percentage damage caused to the plant, SETFA” value was 5 (5=80-100%) in [1] and 2 (2=20-39%) in [8]. In addition, the “percentage damage caused to the plant, ECHCG” value in assay [2] and in assay [7] was 3 (3=40-59%) throughout. Also, the “percentage damage caused to the plant, ALOMY” value in [3] and in [9] was 2 (2=20-39%) throughout. Moreover, the “percentage damage caused to the plant, IPOHE” value in [4] and in [10] was 5 (5=80-100%) throughout. The “percentage damage caused to the plant, AMARE” value in [5] and in assay [11] was 5 (5=80-100%) each time. Besides, the “percentage damage caused to the plant, SOLNI” value in [6] and in assay [12] was 5 (5=80-100%) throughout.

Regarding `Cc1ccccc1-n1c(=O)c(C(=O)Nc2nnnn2C)nc2ccccc21` [Compound 5.034], the “percentage damage caused to the plant, SETFA” value in assay [1] and in assay [8] was 5 (5=80-100%) each time. The “percentage damage caused to the plant, ECHCG” value in assay [2] and in assay [7] was 5 (5=80-100%) each time. Also, the entries for the “percentage damage caused to the plant, ALOMY” value in assay [3] and in assay [9] were 4 (4=60-79%) and 5 (5=80-100%), respectively. The “percentage damage caused to the plant, IPOHE” value in [4] and in assay [10] was 5 (5=80-100%) throughout. Moreover, the “percentage damage caused to the plant, AMARE” value in assay [5] and in [11] was 5 (5=80-100%) throughout. In addition, the “percentage damage caused to the plant, SOLNI” value in [6] and in assay [12] was 5 (5=80-100%) in each case.

For `Cc1nc2c(cc1F)cc(C(=O)Nc1nnnn1C)c(=O)n2-c1ccsc1` [Compound 6.002], the “percentage damage caused to the plant, SETFA” value was 2 (2=20-39%) in assay [1] and 1 (1=0-19%) in [8]. The “percentage damage caused to the plant, ECHCG” value is listed as 4 (4=60-79%) in assay [2] and 1 (1=0-19%) in assay [7]. Besides, the “percentage damage caused to the plant, ALOMY” value in assay [3] and in assay [9] was 1 (1=0-19%) each time. Also, the “percentage damage caused to the plant, IPOHE” value in assay [4] is 5 (5=80-100%); in [10], 2 (2=20-39%). The “percentage damage caused to the plant, AMARE” value in assay [5] and in assay [11] was 5 (5=80-100%) throughout. In addition, the “percentage damage caused to the plant, SOLNI” value in assay [6] is 5 (5=80-100%); in assay [12], 4 (4=60-79%).

For the compound `Cn1nnnc1NC(=O)c1nc2ccccc2n(-c2ccc3ccccc3c2)c1=O` [Compound 5.031], the “percentage damage caused to the plant, SETFA” value in assay [1] and in assay [8] was 1 (1=0-19%) each time. Besides, the “percentage damage caused to the plant, ECHCG” value in assay [2] and in assay [7] was 1 (1=0-19%) throughout. Also, the “percentage damage caused to the plant, ALOMY” value in assay [3] and in [9] was 1 (1=0-19%) throughout. Besides, the “percentage damage caused to the plant, IPOHE” value in [4] was 3 (3=40-59%); in assay [10] it was 1 (1=0-19%). For the same compound, the “percentage damage caused to the plant, AMARE” value in assay [5] and in [11] was 5 (5=80-100%) throughout. Further, the “percentage damage caused to the plant, SOLNI” value in assay [6] and in assay [12] was 5 (5=80-100%) in each case.

For the compound `Cn1nnnc1NC(=O)c1nc2ccccc2n(-c2ccc(Cl)cc2)c1=O` [Compound 5.015], the “percentage damage caused to the plant, SETFA” value in [1] and in assay [8] was 5 (5=80-100%) in each case. Moreover, the “percentage damage caused to the plant, ECHCG” value in [2] and in assay [7] was 5 (5=80-100%) throughout. The “percentage damage caused to the plant, ALOMY” value is 4 (4=60-79%) in assay [3] and 2 (2=20-39%) in assay [9]. In addition, the “percentage damage caused to the plant, IPOHE” value in assay [4] and in [10] was 5 (5=80-100%) throughout. In addition, the “percentage damage caused to the plant, AMARE” value in [5] and in [11] was 5 (5=80-100%) in each case. In addition, the “percentage damage caused to the plant, SOLNI” value in assay [6] and in assay [12] was 5 (5=80-100%) throughout.

Turning to `Cn1nnnc1NC(=O)c1nc2ccccc2n(-c2cccc(F)c2)c1=O` [Compound 5.018], the “percentage damage caused to the plant, SETFA” value in [1] and in assay [8] was 5 (5=80-100%) throughout. Moreover, the “percentage damage caused to the plant, ECHCG” value in assay [2] and in assay [7] was 5 (5=80-100%) in each case. For the same compound, the “percentage damage caused to the plant, ALOMY” value in assay [3] and in [9] was 5 (5=80-100%) each time. Besides, the “percentage damage caused to the plant, IPOHE” value in assay [4] and in assay [10] was 5 (5=80-100%) each time. For the same compound, the “percentage damage caused to the plant, AMARE” value in [5] and in [11] was 5 (5=80-100%) throughout. Besides, the “percentage damage caused to the plant, SOLNI” value in [6] and in [12] was 5 (5=80-100%) in each case.

On to `Cn1nnnc1NC(=O)c1nc2ccccc2n(-c2cc(Cl)cc(Cl)c2)c1=O` [Compound 5.017], for which the “percentage damage caused to the plant, SETFA” value in assay [1] and in assay [8] was 5 (5=80-100%) each time. Also, the “percentage damage caused to the plant, ECHCG” value in assay [2] is listed as 2 (2=20-39%); in assay [7], 1 (1=0-19%). Besides, the “percentage damage caused to the plant, ALOMY” value in assay [3] is recorded as 5 (5=80-100%); in assay [9], 4 (4=60-79%). The “percentage damage caused to the plant, IPOHE” value in assay [4] and in [10] was 4 (4=60-79%) each time. For the same compound, the “percentage damage caused to the plant, AMARE” value in [5] and in assay [11] was 5 (5=80-100%) each time. Besides, the “percentage damage caused to the plant, SOLNI” value in [6] and in assay [12] was 5 (5=80-100%) each time.

On to `Cn1nnnc1NC(=O)c1nc2ccccc2n(-c2cccc([N+](=O)[O-])c2)c1=O` [Compound 5.025], for which the “percentage damage caused to the plant, SETFA” value in assay [1] is listed as 5 (5=80-100%); in assay [8] it was 2 (2=20-39%). Besides, the entries for the “percentage damage caused to the plant, ECHCG” value in assay [2] and in assay [7] were 5 (5=80-100%) and 3 (3=40-59%), respectively. Moreover, the “percentage damage caused to the plant, ALOMY” value is reported as 5 (5=80-100%) in assay [3] and 2 (2=20-39%) in [9]. In addition, the “percentage damage caused to the plant, IPOHE” value in assay [4] and in [10] was 4 (4=60-79%) each time. Further, the “percentage damage caused to the plant, AMARE” value in [5] and in assay [11] was 5 (5=80-100%) each time. The “percentage damage caused to the plant, SOLNI” value in [6] and in assay [12] was 5 (5=80-100%) throughout.
